Measured values published in patent US9492468B2, “Methods and compositions for treatment of acute heart failure” (PERICOR THERAPEUTICS, INC., priority 2008, dated 2016).

Legend:
[1] = Octanol:water partition coefficient; assay type: physicochemical; conditions: read-out: Octanol: water partition coefficient (log P)
Excerpt: Administering a better absorbed more lipophilic prodrug, which is subsequently hydrolysed to GP531, achieves an increase in the systemic availability of GP531.

[2] = Urinary excretion of GP531 after oral dosing in rat (relative/absolute bioavailability); assay type: in vivo
Description: Two separate studies were conducted in the rat using the free base and/or the water soluble hydrochloride salt of Formula Va. In the first study, equimolar doses of GP531 (20 mg/kg) were administered orally in aqueous solution to separate groups (n=3) of rats as GP531 tartrate or Formula Va hydrochloride. […] Cmax increased 6-fold and AUC over 0-4 hr increased 4-fold. In a subsequent study, using the same equimolar doses of GP531 tartrate and prodrug, the relative bioavailability of GP531 was estimated in a group of rats (n=4) by comparison of the amount of GP531 excreted in urine after dosing.

logP [1]: 3.31
GP531 bioavailability, free base vs hydrochloride salt of the prodrug [2]: no significant difference
Structure (SMILES): CC(C)(C)C(=O)O[C@@H]1[C@H](OC(=O)C(C)(C)C)[C@@H](CNCc2ccccc2)O[C@H]1n1cnc(C(N)=O)c1N [Formula Va]
